In the experiment the target is T1, hFASN enzyme (full length) (Homo sapiens, UniProt P49327).
T1 construct: 10 μL hFASN enzyme (full length, 300 ng, purified in house); made in house
In words: Fatty Acid Synthase (FASN) inhibition scintillation proximity assay. Format: biochemical. The note with it: for inhibition at 10 µM: read-out: Human FASN % inhibition @ 10 μM, 10 μM test compound; for IC50: read-out: Human FASN pIC50 (converted). The procedure, abridged:
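Read-out relies on hydrophobic ³H-palmitate product, formed from ³H-acetyl-CoA and malonyl-CoA, binding streptavidin imaging beads, measured at 610±20 nm after at least 24 h. Full-length enzyme (300 ng) in phosphate buffer pH 7.5 with DTT; eight compound concentrations, 0.01–30 μM.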

T1 sequence (P49327 whole entry): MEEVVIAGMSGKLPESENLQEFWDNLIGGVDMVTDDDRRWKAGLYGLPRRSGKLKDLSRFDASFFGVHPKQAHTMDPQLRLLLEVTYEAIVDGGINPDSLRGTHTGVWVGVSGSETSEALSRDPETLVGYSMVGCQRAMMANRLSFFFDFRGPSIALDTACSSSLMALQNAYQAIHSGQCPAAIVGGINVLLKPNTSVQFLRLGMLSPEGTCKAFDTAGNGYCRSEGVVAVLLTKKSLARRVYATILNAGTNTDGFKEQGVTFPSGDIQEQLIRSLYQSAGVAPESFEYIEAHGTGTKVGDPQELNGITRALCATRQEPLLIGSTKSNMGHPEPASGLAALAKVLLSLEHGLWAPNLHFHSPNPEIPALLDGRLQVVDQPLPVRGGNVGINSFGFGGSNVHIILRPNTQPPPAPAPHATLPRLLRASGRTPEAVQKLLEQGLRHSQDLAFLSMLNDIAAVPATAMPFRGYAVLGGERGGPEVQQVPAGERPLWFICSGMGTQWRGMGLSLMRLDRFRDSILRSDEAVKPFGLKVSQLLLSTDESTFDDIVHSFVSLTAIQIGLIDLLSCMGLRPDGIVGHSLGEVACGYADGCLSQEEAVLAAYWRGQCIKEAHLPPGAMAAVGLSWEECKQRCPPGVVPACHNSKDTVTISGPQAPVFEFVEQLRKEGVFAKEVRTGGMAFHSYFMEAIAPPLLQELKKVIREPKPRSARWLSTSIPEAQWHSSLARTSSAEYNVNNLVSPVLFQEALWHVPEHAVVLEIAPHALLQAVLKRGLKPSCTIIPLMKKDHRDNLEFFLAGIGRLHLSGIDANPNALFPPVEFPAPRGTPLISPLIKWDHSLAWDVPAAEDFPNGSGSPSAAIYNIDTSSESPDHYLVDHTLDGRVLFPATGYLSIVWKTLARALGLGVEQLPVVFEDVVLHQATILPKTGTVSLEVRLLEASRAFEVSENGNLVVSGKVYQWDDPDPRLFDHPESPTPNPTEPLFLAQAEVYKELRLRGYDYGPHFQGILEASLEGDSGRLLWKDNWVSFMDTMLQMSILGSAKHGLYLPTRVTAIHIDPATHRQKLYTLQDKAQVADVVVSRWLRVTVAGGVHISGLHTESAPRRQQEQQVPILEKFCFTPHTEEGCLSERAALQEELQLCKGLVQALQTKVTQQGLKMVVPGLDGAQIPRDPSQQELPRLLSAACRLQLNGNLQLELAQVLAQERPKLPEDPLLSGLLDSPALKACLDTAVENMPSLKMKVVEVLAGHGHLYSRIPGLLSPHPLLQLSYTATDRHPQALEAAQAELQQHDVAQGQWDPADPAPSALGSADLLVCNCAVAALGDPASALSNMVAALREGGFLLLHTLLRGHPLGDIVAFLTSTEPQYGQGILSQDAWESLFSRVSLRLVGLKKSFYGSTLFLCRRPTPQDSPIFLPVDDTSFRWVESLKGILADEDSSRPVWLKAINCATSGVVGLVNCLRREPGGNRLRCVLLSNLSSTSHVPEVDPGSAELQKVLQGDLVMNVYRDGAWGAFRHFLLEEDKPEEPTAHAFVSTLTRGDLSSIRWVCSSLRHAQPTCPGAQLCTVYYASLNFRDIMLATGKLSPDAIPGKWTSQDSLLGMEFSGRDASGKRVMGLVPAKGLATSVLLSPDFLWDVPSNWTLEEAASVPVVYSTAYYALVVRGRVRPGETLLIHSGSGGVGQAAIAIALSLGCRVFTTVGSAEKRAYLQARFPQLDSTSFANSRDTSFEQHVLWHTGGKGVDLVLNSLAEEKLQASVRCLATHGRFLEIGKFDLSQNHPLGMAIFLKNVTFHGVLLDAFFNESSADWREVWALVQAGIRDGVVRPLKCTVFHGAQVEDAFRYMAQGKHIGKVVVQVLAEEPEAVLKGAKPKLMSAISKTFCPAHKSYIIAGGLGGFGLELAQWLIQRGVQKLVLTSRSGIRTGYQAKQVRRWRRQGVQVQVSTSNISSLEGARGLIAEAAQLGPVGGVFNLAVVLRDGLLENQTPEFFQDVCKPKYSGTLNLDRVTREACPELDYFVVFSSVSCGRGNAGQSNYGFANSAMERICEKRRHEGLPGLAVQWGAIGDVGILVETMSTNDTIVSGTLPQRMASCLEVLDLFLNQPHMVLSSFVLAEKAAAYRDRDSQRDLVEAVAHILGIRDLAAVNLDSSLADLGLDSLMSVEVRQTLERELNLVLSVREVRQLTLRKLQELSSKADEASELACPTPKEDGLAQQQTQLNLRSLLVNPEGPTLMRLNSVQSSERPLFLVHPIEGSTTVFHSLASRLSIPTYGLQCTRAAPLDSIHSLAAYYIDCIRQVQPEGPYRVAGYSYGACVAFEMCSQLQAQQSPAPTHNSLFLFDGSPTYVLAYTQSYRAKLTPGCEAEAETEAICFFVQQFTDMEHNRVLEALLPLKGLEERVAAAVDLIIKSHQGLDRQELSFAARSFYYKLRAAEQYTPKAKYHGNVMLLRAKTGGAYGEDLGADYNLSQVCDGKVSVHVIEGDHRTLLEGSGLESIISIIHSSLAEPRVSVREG

Regarding `Cn1cc(-c2ccc(-c3ccc(C4=NC5(CCOCC5)C(=O)N4CC4CN(C(=O)C5CC5)C4)cc3)cc2)cn1` [compound 694, 3-{[1-(Cyclopropylcarbonyl)azetidin-3-yl]methyl}-2-[4-(1-methyl-1H-pyrazol-4-yl)biphenyl-4-yl]-8-oxa-1,3-diazaspiro[4.5]dec-1-en-4-one], the inhibition at 10 µM came to 69% and the IC50 is 2.45 µM.
For `CC(O)C(=O)N1CC(CN2C(=O)C3(CCOCC3)N=C2c2ccc(-c3ccc(-c4cnn(C)c4)cc3)cc2)C1` (stereo not shown) [compound 695, 3-{[1-(2-Hydroxypropanoyl)azetidin-3-yl]methyl}-2-[4′-(1-methyl-1H-pyrazol-4-yl)biphenyl-4-yl]-8-oxa-1,3-diazaspiro[4.5]dec-1-en-4-one] the same measures were 43% and 5.89 µM.
Take `Cn1cc(-c2ccc(-c3ccc(C4=NC5(CCOCC5)C(=O)N4CC4CN(C(=O)[C@H]5CCCO5)C4)cc3)cc2)cn1` [compound 696, 2-[4′-(1-Mehtyl-1H-pyrazol-4-yl)biphenyl-4-yl]-3-({1-[(2R)-tetrahydro-furan-2-ylcarbonyl]azetidin-3-yl}methyl)-8-oxa-1,3-diazaspiro[4.5]dec-1-en-4-one]: the inhibition at 10 µM was determined as 72% and the IC50 was 1.7 µM.
Turning to `Cn1cc(-c2ccc(-c3ccc(C4=NC5(CCOCC5)C(=O)N4CC4CN(C(=O)N5CCCC5)C4)cc3)cc2)cn1` [compound 697, 2-[4′-(1-Methyl-1H-pyrazol-4-yl)biphenyl-4-yl]-3-{[1-(pyrrolidin-1-ylcarbonyl)azetidin-3-yl]methyl}-8-oxa-1,3-diazaspiro[4.5]dec-1-en-4-one], the inhibition at 10 µM was determined as 58% and the IC50 was 5.89 µM.
The matching figures for `O=C(C1CC1)N1CC(CN2C(=O)C3(CCOCC3)N=C2c2ccc(-c3ccc4occc4c3)cc2)C1` [compound 702, 2-[4-(1-Benzofuran-5-yl)phenyl]-3-{[1-(cyclopropylcarbonyl)azetidin-3-yl]methyl}-8-oxa-1,3-diazaspiro[4.5]dec-1-en-4-one]: 75% and about 2.63 µM.
The matching figures for `CC(O)C(=O)N1CC(CN2C(=O)C3(CCOCC3)N=C2c2ccc(-c3ccc4occc4c3)cc2)C1` (stereo not shown) [compound 703, 2-[4-(1-Benzofuran-5-yl)phenyl]-3-{[1-(2-hydroxypropanoyl)azetidin-3-yl]methyl}-8-oxa-1,3-diazaspiro[4.5]dec-1-en-4-one]: 61% and 4.47 µM.
For `O=C(N1CCCC1)N1CC(CN2C(=O)C3(CCOCC3)N=C2c2ccc(-c3ccc4occc4c3)cc2)C1` [compound 705, 2-[4-(1-Benzofuran-5-yl)phenyl]-3-{[1-(pyrrolidin-1-ylcarbonyl)azetidin-3-yl]methyl}-8-oxa-1,3-diazaspiro[4.5]dec-1-en-4-one] the same measures were 71% and 2.69 µM.
In the case of `Cn1ncc2cc(-c3ccc(C4=NC5(CCOCC5)C(=O)N4CC4CN(C(=O)C5CC5)C4)cc3)ccc21` [compound 706, 3-{[1-(Cyclopropylcarbonyl)azetidin-3-yl]methyl}-2-[4-(1-methyl-1H-indazol-5-yl)phenyl]-8-oxa-1,3-diazaspiro[4.5]dec-1-en-4-one], the inhibition at 10 µM was found to be 65% and the IC50 was about 2.34 µM.
Take `CC(O)C(=O)N1CC(CN2C(=O)C3(CCOCC3)N=C2c2ccc(-c3ccc4c(cnn4C)c3)cc2)C1` (stereo not shown) [compound 707, 3-{[1-(2-Hydroxypropanoyl)azetidin-3-yl]methyl}-2-[4-(1-methyl-1H-indazol-5-yl)phenyl]-8-oxa-1,3-diazaspiro[4.5]dec-1-en-4-one]: the inhibition at 10 µM amounted to 55% and the IC50 is 6.46 µM.
Take `Cn1ncc2cc(-c3ccc(C4=NC5(CCOCC5)C(=O)N4CC4CN(C(=O)[C@H]5CCCO5)C4)cc3)ccc21` [compound 708, 2-[4-(1-Methyl-1H-indazol-5-yl)phenyl]-3-({1-[(2R)-tetrahydro-furan-2-ylcarbonyl]azetidin-3-yl}methyl)-8-oxa-1,3-diazaspiro[4.5]dec-1-en-4-one]: the inhibition at 10 µM is 76% and the IC50 was 1.86 µM.
For `Cn1ncc2cc(-c3ccc(C4=NC5(CCOCC5)C(=O)N4CC4CN(C(=O)N5CCCC5)C4)cc3)ccc21` [compound 709, 2-[4-(1-Methyl-1H-indazol-5-yl)phenyl]-3-{[1-(pyrrolidin-1-ylcarbonyl)azetidin-3-yl]methyl}-8-oxa-1,3-diazaspiro[4.5]dec-1-en-4-one] the same measures were 64% and 4.07 µM.
The matching figures for `Cn1cc(-c2ccc(-c3ccc(C4=NC5(CCOC5)C(=O)N4CC4CN(C(=O)C5CC5)C4)cc3)cc2)cn1` (stereo not shown) [compound 710, 3-{[1-(Cyclopropylcarbonyl)azetidin-3-yl]methyl}-2-[4′-(1-methyl-1H-pyrazol-4-yl)biphenyl-4-yl]-7-oxa-1,3-diazaspiro[4.4]non-1-en-4-one]: 66% and 2.82 µM.
For `CC(O)C(=O)N1CC(CN2C(=O)C3(CCOC3)N=C2c2ccc(-c3ccc(-c4cnn(C)c4)cc3)cc2)C1` (stereo not shown) [compound 711, 3-{[1-(2-Hydroxypropanoyl)azetidin-3-yl]methyl}-2-[4′-(1-methyl-1H-pyrazol-4-yl)biphenyl-4-yl]-7-oxa-1,3-diazaspiro[4.4]non-1-en-4-one] the same measures were 60% and 6.03 µM.
For the molecule `Cn1cc(-c2ccc(-c3ccc(C4=NC5(CCOC5)C(=O)N4CC4CN(C(=O)[C@H]5CCCO5)C4)cc3)cc2)cn1` (stereo partly drawn) [compound 712, 2-[4′-(1-Methyl-1H-pyrazol-4-yl)biphenyl-4-yl]-3-({1-[(2R)-tetrahydro-furan-2-ylcarbonyl]azetidin-3-yl}methyl)-7-oxa-1,3-diazaspiro[4.4]non-1-en-4-one], the inhibition at 10 µM turned out to be 69% and the IC50 was 2.45 µM.
Take `Cn1cc(-c2ccc(-c3ccc(C4=NC5(CCOC5)C(=O)N4CC4CN(C(=O)N5CCCC5)C4)cc3)cc2)cn1` (stereo not shown) [compound 713, 2-[4′-(1-Methyl-1H-pyrazol-4-yl)biphenyl-4-yl]-3-{[1-(pyrrolidin-1-ylcarbonyl)azetidin-3-yl]methyl}-7-oxa-1,3-diazaspiro[4.4]non-1-en-4-one]: the inhibition at 10 µM worked out at 59% and the IC50 was about 6.76 µM.
For `O=C(C1CC1)N1CC(CN2C(=O)C3(CCOC3)N=C2c2ccc(-c3ccc4occc4c3)cc2)C1` (stereo not shown) [compound 718, 2-[4-(1-Benzofuran-5-yl)phenyl]-3-{[1-(cyclopropylcarbonyl)azetidin-3-yl]methyl}-7-oxa-1,3-diazaspiro[4.4]non-1-en-4-one] the same measures were 72% and about 2.4 µM.
`CC(O)C(=O)N1CC(CN2C(=O)C3(CCOC3)N=C2c2ccc(-c3ccc4occc4c3)cc2)C1` (stereo not shown) [compound 719, 2-[4-(1-Benzofuran-5-yl)phenyl]-3-{[1-(2-hydroxypropanoyl)azetidin-3-yl]methyl}-7-oxa-1,3-diazaspiro[4.4]non-1-en-4-one]: the inhibition at 10 µM came to 67% and the IC50 was 3.89 µM.
As to `O=C(N1CCCC1)N1CC(CN2C(=O)C3(CCOC3)N=C2c2ccc(-c3ccc4occc4c3)cc2)C1` (stereo not shown) [compound 721, 2-[4-(1-Benzofuran-5-yl)phenyl]-3-{[1-(pyrrolidin-1-ylcarbonyl)azetidin-3-yl]methyl}-7-oxa-1,3-diazaspiro[4.4]non-1-en-4-one], the inhibition at 10 µM was determined as 63% and the IC50 is 5.75 µM.
The matching figures for `Cn1ncc2cc(-c3ccc(C4=NC5(CCOC5)C(=O)N4CC4CN(C(=O)C5CC5)C4)cc3)ccc21` (stereo not shown) [compound 722, 3-{[1-(Cyclopropylcarbonyl)azetidin-3-yl]methyl}-2-[4-(1-methyl-1H-indazol-5-yl)phenyl]-7-oxa-1,3-diazaspiro[4.4]non-1-en-4-one]: 56% and 6.61 µM.
Consider `CC(O)C(=O)N1CC(CN2C(=O)C3(CCOC3)N=C2c2ccc(-c3ccc4c(cnn4C)c3)cc2)C1` (stereo not shown) [compound 723, 3-{[1-(2-Hydroxypropanoyl)azetidin-3-yl]methyl}-2-[4-(1-methyl-1H-indazol-5-yl)phenyl]-7-oxa-1,3-diazaspiro[4.4]non-1-en-4-one], for which the inhibition at 10 µM stood at 55% and the IC50 was 7.94 µM.
With `Cn1ncc2cc(-c3ccc(C4=NC5(CCOC5)C(=O)N4CC4CN(C(=O)[C@H]5CCCO5)C4)cc3)ccc21` (stereo partly drawn) [compound 724, 2-[4-(1-Methyl-1H-indazol-5-yl)phenyl]-3-({1-[(2R)-tetrahydro-furan-2-ylcarbonyl]azetidin-3-yl}methyl)-7-oxa-1,3-diazaspiro[4.4]non-1-en-4-one], the inhibition at 10 µM is 47% and the IC50 is 4.17 µM.
Regarding `COC(=O)N1CC2(C1)N=C(c1ccc(-c3ccc(-c4cnn(C)c4)cc3)cc1)N(C[C@@H]1CCN(C(=O)C(C)O)C1)C2=O` (stereo partly drawn) [compound 726, Methyl 7-{[(3R)-1-(2-hydroxypropanoyl)pyrrolidin-3-yl]methyl}-6-[4′-(1-methyl-1H-pyrazol-4-yl)biphenyl-4-yl]-8-oxo-2,5,7-triazaspiro[3.4]oct-5-ene-2-carboxylate], the inhibition at 10 µM came out at 73% and the IC50 was 1.95 µM.
The matching figures for `COC(=O)N1CC2(C1)N=C(c1ccc(-c3ccc4cccnc4c3)cc1)N(C[C@@H]1CCN(C(=O)C(F)(F)F)C1)C2=O` [compound 731, Methyl 8-oxo-6-(4-quinolin-7-ylphenyl)-7-{[(3R)-1-(trifluoroacetyl)pyrrolidin-3-yl]methyl}-2,5,7-triazaspiro[3.4]oct-5-ene-2-carboxylate]: 63% and 3.8 µM.

These data come from patent US10077261B2, “Imidazolin-5-one derivative useful as FASN inhibitors for the treatment of cancer” (Janssen Pharmaceutica NV, priority 2012, dated 2018).
